Assay results from US9725469B2, “Amino-oxazine and amino-dihydrothiazine compounds as beta-secretase modulators and methods of use” (Amgen Inc., priority 2012, dated 2017).

How the values were obtained:
[1] = molecular target: BACE 1 (beta secretase enzyme) (Homo sapiens, UniProt P56817); assay: In vitro enzymatic BACE FRET assay; format: biochemical; settings: average IC50, pH 4.2
Method: In Vitro Enzymatic BACE FRET (Fluorescence Resonance Energy Transfer) Assay
The assay buffer used in this screen is 0.05 M acetate, pH 4.2, 10% DMSO final, 100 uM genapol (which is a nonionic detergent, below its Critical Micelle Concentration). The beta secretase enzyme (0.2 nM) is pre-incubated for one hour with inhibitors, typically in about 1 uL of DMSO according to a serial dilution, are added thereto. This assay is effectively started by the addition of FRET substrate (50 nM) and the combination is incubated for one hour. The FRET assay is terminated with by addition of Tris buffer, which raises the pH to neutrality, and the fluorescence is determined. The FRET substrate is a peptide with commercially available fluorophore and quencher, on opposite sides of the BACE cleavage site. Proteolytic cleavage of the FRET substrate releases quenching of fluorescence (excitation […] and […]).

[2] = system: Aβ40 in conditioned medium of cells stably expressing Amyloid Precursor Protein (APP); assay: In vitro BACE cell-based assay (HEK cell assay, Aβ40 sandwich ELISA); settings: average IC50, Aβ40, 24 h incubation
Method: In Vitro BACE Cell-Based Assay
The cell-based assay measures inhibition or reduction of Aβ40 in conditioned medium of test compound treated cells expressing amyloid precursor protein.
Cells stably expressing Amyloid Precursor Protein (APP) were plated at a density of 40K cells/well in 96 well plates (Costar). The cells were cultivated for 24 hours at 37° C. and 5% CO2 in DMEM supplemented with 10% FBS. The test compounds were then added to cells in 10-point dose response concentrations with the starting concentration being either 100 μM or 10 μM. The compounds were diluted from stock solutions in DMSO and the final DMSO concentration of the test compounds on cells was 0.1%. After 24 h of incubation with the test compounds the supernatant conditioned media was collected and the Aβ 40 levels were determined using a sandwich ELISA. The IC50 of the compound was calculated from the percent of control or percent inhibition of Aβ 40 as a function of the concentration of the test compound.
The sandwich ELISA to detect Aβ 40 was performed in 96 well microtiter plates, which were pre-treated with goat anti-rabbit IgG (Pierce). The capture and detecting antibody pair that were used to detect Aβ 40 from cell supernatants were affinity purified pAb40 (Biosource) and biotinylated 6E10 (Signet Labs Inc.), respectively. The optimal concentration for the pAb40 antibody was 3 μg/ml in Superblock/TBS (Pierce) that was supplemented with 0.05% Tween 20 (Sigma). Optimal concentration for the detection antibody 6E10-biotinylated was 0.5 μg/ml in Superblock/TBS (Pierce) that had been supplemented with 2% normal goat serum and 2% normal mouse serum.
Cellular supernatants were incubated with the capture antibody for 3 h at 4° C., followed by 3 wash steps in TBS-tween (0.05%). The detecting antibody incubation was for 2 h at 4° C., again followed by the wash steps as described previously. The final readout of the ELISA is Time-Resolved Fluorescence (counts per minute) using Delfia reagents Streptavidin-Europium and Enhancement solutions (Perkin Elmer) and the Victor 2 multilabel counter (Perkin Elmer).

Cathepsin D = molecular target: T1, Cathepsin D (Homo sapiens, UniProt P07339); assay: In vitro enzymatic Cat D (Cathepsin D) FRET assay; format: biochemical; settings: average IC50, pH 3.5
T1 construct: made in house; host or cells: CHO cells
T1 sequence (P07339 65-412, species assumed): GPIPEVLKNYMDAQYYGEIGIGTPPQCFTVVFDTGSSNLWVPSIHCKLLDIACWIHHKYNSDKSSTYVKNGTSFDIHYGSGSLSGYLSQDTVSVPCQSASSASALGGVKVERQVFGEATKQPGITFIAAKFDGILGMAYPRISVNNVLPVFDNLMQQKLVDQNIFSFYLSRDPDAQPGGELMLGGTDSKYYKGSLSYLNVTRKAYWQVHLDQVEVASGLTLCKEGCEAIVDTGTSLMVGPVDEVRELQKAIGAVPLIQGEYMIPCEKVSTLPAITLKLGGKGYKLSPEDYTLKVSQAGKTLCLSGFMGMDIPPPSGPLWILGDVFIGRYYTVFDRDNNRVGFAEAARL
Method: In Vitro Enzymatic Cat D (Cathepsin D) FRET (Fluorescence Resonance Energy Transfer) Assay
Recombinant CathepsinD was expressed in CHO cells. The assay buffer for CathepsinD is 0.05 M citrate pH 3.5, 10% DMSO final, 5 mM CHAPS. The CathepsinD enzyme (9 nM) is pre-incubated for one hour with inhibitors, typically in about 1 uL of DMSO according to a serial dilution, is added thereto. The assays are effectively started by the addition of different FRET substrates (20 nM for CathepsinD) and the combination is incubated for one hour. The FRET assay is terminated with by addition of Tris buffer, which raises the pH to neutrality, and the fluorescence is determined. The FRET substrate is a peptide with commercially available fluorophore and quencher, on opposite sides of the BACE cleavage site. The CathepsinD substrate peptide sequence is based on sequence #1 of Table 1 from Gulnik et al. FEBS Letters v413 p 379-384 1997. Proteolytic cleavage of the FRET substrate releases quenching of fluorescence (CathepsinD excitation 500 nm and emission 580 nm). […]

Abeta 40 = assay: In vivo inhibition of beta-secretase: Abeta 40 reduction in rat CSF and brain; settings: after 4 hrs; for % reduction of rat CSF Abeta 40 levels at 10 mpk: Abeta 40, rat CSF; for % reduction of rat brain levels at 10 mpk: Abeta 40, rat brain
Source text: In Vivo Inhibition of Beta-Secretase
Several animal models, including mouse, rat, dog, and monkey, may be used to screen for inhibition of beta-secretase activity in vivo following administration of a test compound sample. Animals used in this invention can be wild type, transgenic, or gene knockout animals. For example, the Tg2576 mouse model, prepared and conducted as described in Hsiao et al., 1996, Science 274, 99-102, and other non-transgenic or gene knockout animals are useful to analyze in vivo inhibition of Amyloid beta peptide (Abeta) production in the presence of inhibitory test compounds. Generally, 2 to 18 month old Tg2576 mice, gene knockout mice or non-transgenic animals are administered test compounds formulated in vehicles, such as cyclodextran, phosphate buffers, hydroxypropyl methylcellulose or other suitable vehicles. One to twenty-four hours following the administration of compound, animals are sacrificed, and brains as well as cerebrospinal fluid (CSF) and plasma are removed for analysis of A-beta levels and drug or test compound concentrations (Dovey et al., 2001, Journal of Neurochemistry, 76, 173-181) Beginning at time 0, animals are administered by oral gavage, or other means of delivery such as intravenous injection, an inhibitory test compound of up to 100 mg/kg in a standard, conventional formulation, such as 2% hydroxypropyl methylcellulose, 1% Tween80. A separate group of animals receive 2% hydroxypropyl methylcellulose, 1% Tween80 alone, containing no test compound, and serve as a vehicle-control group. At the end of the test period, animals are sacrificed and brain tissues, plasma or cerebrospinal fluid are collected. Brains are either homogenized in 10 volumes (w/v) of 0.2% diethylamine (DEA) in 50 mM NaCl (Best et al., 2005, Journal of Pharmacology and Experimental Therapeutics, 313, 902-908), or in 10 volumes of 0.5% TritonX-100 in Tris-buffered saline (pH at about 7.6). Homogenates are centrifuged at 355,000 g, 4° C. for 30 minutes. CSF or brain supernatants are then analyzed for the presence of A-beta peptide by specific sandwich ELISA assays based on ECL (Electrochemiluminescence) technology. For example, rat Abeta40 is measured using biotinylated-4G8 (Signet) as a capture antibody and Fab40 (an in-house antibody specific to the C-terminal of Abeta40) as a detection antibody. For example, 4 hours after administration of 30 mg/kg oral dose of the test compound in 2% hydroxypropyl methylcellulose, 1% Tween80 (pH2.2) to 200 g male Sprague Dawley rats, amyloid beta peptide levels are measured for reduction by X % and Y % in cerebrospinal fluid and brain, respectively, when compared to the levels measured in the vehicle-treated rats.
Actual vehicles used: Oral: 2% HPMC, 1% Tween80, pH 2.2
The compounds of the invention may be shown to reduce the formation and/or deposition of amyloid beta peptide in the cerebrospinal fluid (CSF) as well as in the brain of a mouse or rat at either 3 mpk, 10 mpk or 30 mpk (mpk=mg compound per kg weight of the animal) dosing concentrations after 4 hrs.

Chain of BACE 1 (beta secretase enzyme) (P56817 46-501): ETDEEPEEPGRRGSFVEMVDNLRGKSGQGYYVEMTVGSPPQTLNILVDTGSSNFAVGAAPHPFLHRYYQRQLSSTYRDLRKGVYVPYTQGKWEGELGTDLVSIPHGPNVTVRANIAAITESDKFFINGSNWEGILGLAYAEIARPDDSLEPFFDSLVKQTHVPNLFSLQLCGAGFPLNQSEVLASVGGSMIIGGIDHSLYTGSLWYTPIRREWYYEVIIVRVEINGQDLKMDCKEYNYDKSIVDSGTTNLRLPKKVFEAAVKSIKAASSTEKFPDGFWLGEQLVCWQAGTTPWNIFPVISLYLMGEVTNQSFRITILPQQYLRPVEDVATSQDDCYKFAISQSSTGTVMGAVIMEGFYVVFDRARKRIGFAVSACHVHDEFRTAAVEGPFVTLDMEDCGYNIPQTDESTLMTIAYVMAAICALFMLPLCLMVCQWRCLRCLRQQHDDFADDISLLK

Compound | IC50 [1] | IC50 ([2]; Homo sapiens, HEK293) | IC50 (Cathepsin D) | % reduction of rat CSF Abeta 40 levels at 10 mpk (Abeta 40) | % reduction of rat brain levels at 10 mpk (Abeta 40) | IC50 [2]
C=C(C)c1cc2c(cn1)Oc1ccc(Nc3nccc4cc(OC)cnc34)cc1[C@@]21CCOC(N)=N1 [Example 37, (5S)-N~7~-(3-methoxy-1,7-naphthyridin-8-yl)-3-(1-methylethenyl)-5′,6′-dihydrospiro[chromeno[2,3-c]pyridine-5,4′-[l,3]oxazine]-2′,7-diamine] | 17.8 nM | 3.8 nM | 546000 nM | 38% | 32% | –
COc1cnc2c(Nc3ccc4c(c3)[C@@]3(CCOC(N)=N3)c3cc(Cl)nc(F)c3O4)nccc2c1 [Example 35, (5S)-3-chloro-1-fluoro-N-~7~-(3-methoxy-1,7-naphthyridin-8-yl)-5′,6′-dihydrospiro[chromeno[2,3-c]pyridine-5,4′-[1,3]oxazine]-2′,7-diamine] | 97.2 nM | 35.3 nM | 400000 nM | – | – | –
COc1cnc2c(Nc3ccc4c(c3)[C@@]3(CCSC(N)=N3)c3cc(C5=CCCOC5)ncc3O4)nccc2c1 [Example 34, (5S)-3-(5,6-dihydro-2H-pyran-3-yl)-N~7~-(3-methoxy-1,7-naphthyridin-8-yl)-5′,6′-dihydrospiro[chromeno[2,3-c]pyridine-5,4′-[1,3]thiazine]-2′,7-diamine] | 13.2 nM | 5.4 nM | 336000 nM | 44% | 5% | –
COc1cnc2c(Nc3ccc4c(c3)[C@@]3(CCSC(N)=N3)c3cc(C5=CCCOC5)nc(F)c3O4)nccc2c1 [Example 31, (5S)-3-(5,6-dihydro-2H-pyran-3-yl)-1-fluoro-N~7~-(3-methoxy-1,7-naphthyridin-8-yl)-5′,6′-dihydrospiro[chromeno[2,3-c]pyridine-5,4′-[1,3]thiazine]-2′,7-diamine] | 4.3 nM | 5.3 nM | 313000 nM | – | – | –
COc1cnc2c(Nc3ccc4c(c3)[C@@]3(CCOC(N)=N3)c3cc(C(C)C)ncc3O4)nccc2c1 [Example 36, (5S)-N~7~-(3-methoxy-1,7-naphthyridin-8-yl)-3-(1-methylethyl)-5′,6′-dihydrospiro[chromeno[2,3-c]pyridine-5,4′-[l,3]oxazine]-2′,7-diamine] | 11.3 nM | 2.7 nM | 133000 nM | 58% | 19% | –
COc1cnc2c(Nc3ccc4c(c3)[C@@]3(CCOC(N)=N3)c3cc(C5=CCOCC5)ncc3O4)ccnc2c1 [Example 33] | 19.4 nM | – | – | – | – | 0.4 nM

Now from value to compound, other results behind:

IC50 [1] | IC50 ([2]; Homo sapiens, HEK293) | IC50 (Cathepsin D) | Compound | % reduction of rat CSF Abeta 40 levels at 10 mpk (Abeta 40) | % reduction of rat brain levels at 10 mpk (Abeta 40) | IC50 [2]
5.3 nM | 4.1 nM | 400000 nM | Cc1nc2c(Nc3ccc4c(c3)[C@@]3(CCOC(N)=N3)c3cc(C5=CCOCC5)ncc3O4)nccc2s1 [Example 44, (5S)-3-(3,6-dihydro-2H-pyran-4-yl)-N~7~-(2-methyl[1,3]thiazolo[4,5-c]pyridin-4-yl)-5′,6′-dihydrospiro[chromeno[2,3-c]pyridine-5,4′-[1,3]oxazine]-2′,7-diamine] | – | – | –
6.9 nM | 2.6 nM | 400000 nM | COc1cnc2c(Nc3ccc4c(c3)[C@@]3(CCOC(N)=N3)c3cc(C5CC5)ncc3O4)nccc2n1 [Example 42, (5S)-3-cyclopropyl-N~7~-(2-methoxypyrido[3,4-b]pyrazin-5-yl)-5′,6′-dihydrospiro[chromeno[2,3-c]pyridine-5,4′-[1,3]oxazine]-2′,7-diamine] | – | – | –
3.2 nM | 12.3 nM | 338000 nM | COc1cnc2c(Nc3ccc4c(c3)[C@@]3(CCSC(N)=N3)c3cc(-c5ccnc(F)c5)nc(F)c3O4)nccc2c1 [Example 39, (5S)-1-fluoro-3-(2-fluoro-4-pyridinyl)-N~7~-(3-methoxy-1,7-naphthyridin-8-yl)-5′,6′-dihydrospiro[chromeno[2,3-c]pyridine-5,4′-[1,3]thiazine]-2′,7-diamine] | – | – | –
3.2 nM | 16 nM | 400000 nM | COc1cnc2c(Nc3ccc4c(c3)[C@@]3(CCSC(N)=N3)c3cc(-c5cncc(F)c5)nc(F)c3O4)nccc2c1 [Example 41, (5S)-1-fluoro-3-(5-fluoro-3-pyridinyl)-N~7~-(3-methoxy-1,7-naphthyridin-8-yl)-5′,6′-dihydrospiro[chromeno[2,3-c]pyridine-5,4′-[1,3]thiazine]-2′,7-diamine] | – | – | –
15.6 nM | 138 nM | 400000 nM | COc1cnc2c(Nc3ccc4c(c3)[C@@]3(CCSC(N)=N3)c3cc(-c5ccnc(OC(C)C)c5)nc(F)c3O4)nccc2c1 [Example 40, (5S)-1-fluoro-N~7~-(3-methoxy-1,7-naphthyridin-8-yl)-3-(2-(1-methylethoxy)-4-pyridinyl)-5′,6′-dihydrospiro[chromeno[2,3-c]pyridine-5,4′-[1,3]thiazine]-2′,7-diamine] | – | – | –
14.8 nM | 2.6 nM | 400000 nM | COc1cnc2c(Nc3ccc4c(c3)[C@@]3(CCOC(N)=N3)c3cc(C5=CCOCC5)ncc3O4)nccc2c1 [Example 43, (5S)-3-(3,6-dihydro-2H-pyran-4-yl)-N~7~-(3-methoxy-1,7-naphthyridin-8-yl)-5′,6′-dihydrospiro[chromeno[2,3-c]pyridine-5,4′-[1,3]oxazine]-2′,7-diamine] | – | – | –
